We go through two molecules from patent US10086082B2, “Plant steroids and uses thereof” (DAVIDSON LOPEZ LLC, priority 2011, dated 2018).

The subject of the assay is Caco-2 cells. Briefly: Gene expression profiling of Caco-2 cells treated with compounds (Illumina HT-12 arrays, Volcano plots). Type of assay: cell-based, human. The conditions noted are these: gene array; for Interleukin-1, beta gene regulation: 24 hours exposure.

Protocol: Gene expression profiles were generated from 2.5 μM and 25 μM treatments of Caco-2 cells (ATCC).
All compounds were individually applied to Caco-2 cells (250,000/well). After RNA isolation of each treatment, the isolated RNAs were individually labeled as cDNA probes and applied to Illumina HT-12 array chips.
Key Genes Affected per Gene Class: Using the Inforsense Suite of Data Analysis tool (IDBS), a total of 36 Volcano plots were generated against 36 gene array assays (triplicate array assays per nontreatment and treatment of compounds). […] Genes were identified on both sides of the volcano plots (shaded in gray in FIG. 2) that were at a correlation coefficient of p<0.05.
The human colon adenocarcinoma cell line Caco-2 was cultured in Dulbecco's Modified Eagle's Medium (Sigma-Aldrich) with 4.5 g/l glucose, L-glutamine, NaHCO3 and pyridoxine HCl supplemented with 1% (vol/vol) nonessential amino acids, 1% Na-pyruvate, 1% penicillin/streptomycin, and 10% (vol/vol) heat inactivated fetal calf serum, all purchased from Gibco BRL. Cell cultures were transferred weekly by trypsinization and incubated at 37° C. in a humidified incubator containing 5% CO2. […] Cells were exposed to each compound, respectively, for 24 hours.
Total RNA was isolated according to the TRIzol manufacturer's instructions (Invitrogen). RNA quality was assessed with a 2100 Bioanalyzer (Agilent). RNA from pooled triplicates of the various cell treatments, all with an RNA integrity number >7, was further purified with Qiagen RNeasy columns. From 300 ng of total RNA, the Illumina TotalPrep RNA Amplification kit (Ambion) was used to generate amplified biotinylated cRNA after reverse transcription by the Eberwine procedure. cRNA (900 ng) was hybridized overnight to Illumina HT-12 BeadArrays, which were then washed and stained with streptavidin-Cy3 (Amersham-Pharmacia Biotech) according to the Illumina protocol. Arrays were scanned on a BeadArray Reader (Illumina).
Specific transcripts within the biotinylated cRNA were measured by fluorescent imaging after direct hybridization to HT-12 bead arrays, which contain 12 arrays per slide, each with an average of 15 beads for each of 48,803 probes measuring 37,846 annotated genes and additional transcripts. Raw measurements of the intensity of each bead were captured directly and processed as “bead-level” for the samples, as described below. For both treated and non-treated samples, measurements were processed as “probe-level” data by GenomeStudio software (Illumina). […]

As to `CC[C@H](/C=C/[C@@H](C)[C@H]1CC[C@H]2[C@@H]3CC=C4C[C@@H](OC(=O)CCC(=O)OCC(=O)[C@@]5(O)CC[C@H]6[C@@H]7CCC8=CC(=O)C=C[C@]8(C)[C@H]7[C@@H](O)C[C@@]65C)CC[C@]4(C)[C@H]3CC[C@]12C)C(C)C` [SE-24, Stigmasterol Prednisolone Succinate Diester], the “Interleukin-1, beta gene regulation” value is listed as “up-regulated”; the “interleukin receptor and interleukins affected” value is “affected”; the “similarity of gene profile to prednisone” value is reported as “more similar gene profiles to prednisone”.
“Stigmasterol Triethyleneglycol Prednisolone Succinate [SE-22]”: the “Interleukin-1, beta gene regulation” value is given as “up-regulated”.
